Assay: xn = mol fraction of the nth substance listed

Cc1ncc(C[n+]2csc(CCO)c2C)c(N)n1.Cl.[Cl-] + O
Conditions | viscosity [mPa·s]
293.15 K, 101 kPa, x1 = 0.00036 | 1.014
293.15 K, 101 kPa, x1 = 0.00072 | 1.027
293.15 K, 101 kPa, x1 = 0.00108 | 1.041
293.15 K, 101 kPa, x1 = 0.00144 | 1.057
293.15 K, 101.3 kPa, x1 = 0.000445 | 1.015
293.15 K, 101.3 kPa, x1 = 0.000886 | 1.029
293.15 K, 101.3 kPa, x1 = 0.00177 | 1.063
293.15 K, 101.3 kPa, x1 = 0.002215 | 1.08
298.15 K, 101 kPa, x1 = 0.00036 | 0.9013
298.15 K, 101 kPa, x1 = 0.000364 | 0.9024
298.15 K, 101 kPa, x1 = 0.000385 | 0.914
298.15 K, 101 kPa, x1 = 0.000657 | 0.914
298.15 K, 101 kPa, x1 = 0.00072 | 0.9129
298.15 K, 101 kPa, x1 = 0.000731 | 0.929
298.15 K, 101 kPa, x1 = 0.000952 | 0.9244
298.15 K, 101 kPa, x1 = 0.00107 | 0.941
298.15 K, 101 kPa, x1 = 0.00108 | 0.9266
298.15 K, 101 kPa, x1 = 0.00125 | 0.9372
298.15 K, 101 kPa, x1 = 0.00144 | 0.9406
298.15 K, 101 kPa, x1 = 0.00145 | 0.96
298.15 K, 101 kPa, x1 = 0.00155 | 0.9488
298.15 K, 101 kPa, x1 = 0.001658 | 0.9532
298.15 K, 101 kPa, x1 = 0.001695 | 0.9545
298.15 K, 101 kPa, x1 = 0.001856 | 0.959
298.15 K, 101 kPa, x1 = 0.001922 | 0.98
298.15 K, 101 kPa, x1 = 0.002519 | 0.9786
298.15 K, 101 kPa, x1 = 0.002881 | 1.013
298.15 K, 101 kPa, x1 = 0.003713 | 1.05
298.15 K, 101 kPa, x1 = 0.003828 | 1.034
298.15 K, 101 kPa, x1 = 0.004291 | 1.055
298.15 K, 101 kPa, x1 = 0.004534 | 1.083
298.15 K, 101 kPa, x1 = 0.005245 | 1.097
298.15 K, 101 kPa, x1 = 0.005408 | 1.111
298.15 K, 101 kPa, x1 = 0.007149 | 1.185
298.15 K, 101 kPa, x1 = 0.00796 | 1.228
298.15 K, 101 kPa, x1 = 0.009056 | 1.254
298.15 K, 101 kPa, x1 = 0.009864 | 1.281
298.15 K, 101.3 kPa, x1 = 0.000445 | 0.902
298.15 K, 101.3 kPa, x1 = 0.000886 | 0.916
298.15 K, 101.3 kPa, x1 = 0.00133 | 0.931
298.15 K, 101.3 kPa, x1 = 0.00177 | 0.947
298.15 K, 101.3 kPa, x1 = 0.002215 | 0.963
303.15 K, 101 kPa, x1 = 0.00036 | 0.8078
303.15 K, 101 kPa, x1 = 0.00072 | 0.8185
303.15 K, 101 kPa, x1 = 0.00108 | 0.8322
303.15 K, 101 kPa, x1 = 0.00144 | 0.8443
303.15 K, 101.3 kPa, x1 = 0.000445 | 0.808
303.15 K, 101.3 kPa, x1 = 0.000886 | 0.822
303.15 K, 101.3 kPa, x1 = 0.00133 | 0.836
303.15 K, 101.3 kPa, x1 = 0.00177 | 0.85
303.15 K, 101.3 kPa, x1 = 0.002215 | 0.864
308.15 K, 101 kPa, x1 = 0.00036 | 0.729
308.15 K, 101 kPa, x1 = 0.000364 | 0.7301
308.15 K, 101 kPa, x1 = 0.000657 | 0.7393
308.15 K, 101 kPa, x1 = 0.00072 | 0.7391
308.15 K, 101 kPa, x1 = 0.000952 | 0.7485
308.15 K, 101 kPa, x1 = 0.00108 | 0.7506
308.15 K, 101 kPa, x1 = 0.00125 | 0.7576
308.15 K, 101 kPa, x1 = 0.00144 | 0.7631
308.15 K, 101 kPa, x1 = 0.00155 | 0.768
308.15 K, 101 kPa, x1 = 0.001658 | 0.7726
308.15 K, 101 kPa, x1 = 0.001695 | 0.7711
308.15 K, 101 kPa, x1 = 0.001856 | 0.7772
308.15 K, 101 kPa, x1 = 0.002519 | 0.8005
308.15 K, 101 kPa, x1 = 0.003828 | 0.837
308.15 K, 101 kPa, x1 = 0.004291 | 0.8515
308.15 K, 101 kPa, x1 = 0.005245 | 0.8799
308.15 K, 101.3 kPa, x1 = 0.000445 | 0.73
308.15 K, 101.3 kPa, x1 = 0.000886 | 0.743
308.15 K, 101.3 kPa, x1 = 0.00177 | 0.77
308.15 K, 101.3 kPa, x1 = 0.002215 | 0.783
313.15 K, 101 kPa, x1 = 0.00036 | 0.6623
313.15 K, 101 kPa, x1 = 0.00072 | 0.6722
313.15 K, 101 kPa, x1 = 0.00108 | 0.6831
313.15 K, 101 kPa, x1 = 0.00144 | 0.6947
313.15 K, 101.3 kPa, x1 = 0.000445 | 0.664
313.15 K, 101.3 kPa, x1 = 0.000886 | 0.676
313.15 K, 101.3 kPa, x1 = 0.00133 | 0.689
313.15 K, 101.3 kPa, x1 = 0.00177 | 0.702
313.15 K, 101.3 kPa, x1 = 0.002215 | 0.713
318.15 K, 101 kPa, x1 = 0.000364 | 0.6037
318.15 K, 101 kPa, x1 = 0.000657 | 0.6116
318.15 K, 101 kPa, x1 = 0.000952 | 0.6196
318.15 K, 101 kPa, x1 = 0.00125 | 0.6275
318.15 K, 101 kPa, x1 = 0.00155 | 0.6343
318.15 K, 101 kPa, x1 = 0.001658 | 0.6377
318.15 K, 101 kPa, x1 = 0.001695 | 0.6389
318.15 K, 101 kPa, x1 = 0.001856 | 0.6413
318.15 K, 101 kPa, x1 = 0.002519 | 0.6591
318.15 K, 101 kPa, x1 = 0.003828 | 0.6919
318.15 K, 101 kPa, x1 = 0.005245 | 0.7256
318.15 K, 101.3 kPa, x1 = 0.000445 | 0.606
318.15 K, 101.3 kPa, x1 = 0.000886 | 0.618
318.15 K, 101.3 kPa, x1 = 0.00133 | 0.63
318.15 K, 101.3 kPa, x1 = 0.00177 | 0.642
318.15 K, 101.3 kPa, x1 = 0.002215 | 0.653

Source: the CheMixHub viscosity set
